The source of these data is patent US20260035365A1, “1H-PYRROLO[3,2-B]PYRIDINE DERIVATIVES AS IRREVERSIBLE INHIBITORS OF MUTANT EGFR FOR THE TREATMENT OF CANCER” (Bayer Aktiengesellschaft, priority 2022, published 2026).

Assay [1] has as its target mutEGFR (D770_N771insSVD) (Homo sapiens, UniProt P00533, INS767SVD). Briefly: Exon20-mutant-EGFR (D770_N771insSVD) TR-FRET kinase assay. The settings on record: 2 mM ATP, 15 min preincubation. The assay is classed as biochemical. Put shortly: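 GST-fused human EGFR fragment R669-A1210 carrying the SVD insertion, Sf9-expressed, typically 15 pg/μl, was preincubated with compound for 15 min at 22° C in pH 7.0 Hepes/MgCl2 buffer. Phosphorylation was read by HTRF (665/620 nm ratio), normalised to no-inhibitor and no-enzyme controls.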

Assay [2] concerns the target mutEGFR (D770_N771insNPG, T790). In words: mutEGFR (D770_N771insNPG, T790) kinase assay. The assay is classed as biochemical, human.
The subject of a further assay is BA/F3 (insSVD) cells. Briefly: Ba/F3 cell survival assay (Cell Titer-Glo), EGFR-insSVD. Format: cell-based. The settings on record: Mus musculus, BaF3, 48 h, without IL-3, with EGF. The gist of the method: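 Viability read by CellTiter-Glo luminescence after 48 h compound exposure at 37° C, 4000 cells/well. Retrovirally transduced, puromycin-selected Ba/F3 lines carrying EGFR-insSVD ± T790M grew IL-3-free with 10 ng/mL EGF for 2 days beforehand; compound delivered by 100 nL pin.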
(In general: Cellular ATP, detected with luciferase, serves as a proxy for viable cell number.)

Chain of mutEGFR (D770_N771insSVD) (P00533 with tags, fused parts or gaps INS767SVD limits assumed): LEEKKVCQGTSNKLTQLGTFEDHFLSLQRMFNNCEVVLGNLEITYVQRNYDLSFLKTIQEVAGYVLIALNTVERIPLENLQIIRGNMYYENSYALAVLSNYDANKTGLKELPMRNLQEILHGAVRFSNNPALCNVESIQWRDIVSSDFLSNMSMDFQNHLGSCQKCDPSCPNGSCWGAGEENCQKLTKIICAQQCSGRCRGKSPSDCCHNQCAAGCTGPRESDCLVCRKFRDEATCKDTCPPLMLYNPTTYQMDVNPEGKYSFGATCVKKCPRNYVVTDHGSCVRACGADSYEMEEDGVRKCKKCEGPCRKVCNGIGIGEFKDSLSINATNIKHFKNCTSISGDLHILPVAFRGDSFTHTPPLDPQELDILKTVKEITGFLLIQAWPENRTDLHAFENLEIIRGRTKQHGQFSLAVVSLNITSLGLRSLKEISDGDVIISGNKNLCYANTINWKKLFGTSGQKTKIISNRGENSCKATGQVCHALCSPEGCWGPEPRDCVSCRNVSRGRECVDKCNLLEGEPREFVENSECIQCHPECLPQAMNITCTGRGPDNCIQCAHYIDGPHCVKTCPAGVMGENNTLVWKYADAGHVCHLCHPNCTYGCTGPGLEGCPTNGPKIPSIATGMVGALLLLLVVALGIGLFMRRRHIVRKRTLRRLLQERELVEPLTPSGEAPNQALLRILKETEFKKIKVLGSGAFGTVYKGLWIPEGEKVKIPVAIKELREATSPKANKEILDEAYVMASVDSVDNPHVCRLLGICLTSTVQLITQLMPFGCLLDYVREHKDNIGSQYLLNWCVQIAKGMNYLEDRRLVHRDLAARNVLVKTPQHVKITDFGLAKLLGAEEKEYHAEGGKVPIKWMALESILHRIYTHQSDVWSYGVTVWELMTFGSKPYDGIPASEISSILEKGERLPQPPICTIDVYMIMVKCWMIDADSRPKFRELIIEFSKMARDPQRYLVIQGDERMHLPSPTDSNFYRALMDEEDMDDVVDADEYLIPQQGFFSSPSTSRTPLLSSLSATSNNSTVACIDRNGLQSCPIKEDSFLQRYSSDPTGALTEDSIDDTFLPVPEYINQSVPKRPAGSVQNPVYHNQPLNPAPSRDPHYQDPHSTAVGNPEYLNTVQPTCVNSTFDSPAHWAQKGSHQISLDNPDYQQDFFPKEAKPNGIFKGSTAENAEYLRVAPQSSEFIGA
Chain of mutEGFR (D770_N771insNPG, T790) (P00533 with tags, fused parts or gaps INS770NPG limits assumed): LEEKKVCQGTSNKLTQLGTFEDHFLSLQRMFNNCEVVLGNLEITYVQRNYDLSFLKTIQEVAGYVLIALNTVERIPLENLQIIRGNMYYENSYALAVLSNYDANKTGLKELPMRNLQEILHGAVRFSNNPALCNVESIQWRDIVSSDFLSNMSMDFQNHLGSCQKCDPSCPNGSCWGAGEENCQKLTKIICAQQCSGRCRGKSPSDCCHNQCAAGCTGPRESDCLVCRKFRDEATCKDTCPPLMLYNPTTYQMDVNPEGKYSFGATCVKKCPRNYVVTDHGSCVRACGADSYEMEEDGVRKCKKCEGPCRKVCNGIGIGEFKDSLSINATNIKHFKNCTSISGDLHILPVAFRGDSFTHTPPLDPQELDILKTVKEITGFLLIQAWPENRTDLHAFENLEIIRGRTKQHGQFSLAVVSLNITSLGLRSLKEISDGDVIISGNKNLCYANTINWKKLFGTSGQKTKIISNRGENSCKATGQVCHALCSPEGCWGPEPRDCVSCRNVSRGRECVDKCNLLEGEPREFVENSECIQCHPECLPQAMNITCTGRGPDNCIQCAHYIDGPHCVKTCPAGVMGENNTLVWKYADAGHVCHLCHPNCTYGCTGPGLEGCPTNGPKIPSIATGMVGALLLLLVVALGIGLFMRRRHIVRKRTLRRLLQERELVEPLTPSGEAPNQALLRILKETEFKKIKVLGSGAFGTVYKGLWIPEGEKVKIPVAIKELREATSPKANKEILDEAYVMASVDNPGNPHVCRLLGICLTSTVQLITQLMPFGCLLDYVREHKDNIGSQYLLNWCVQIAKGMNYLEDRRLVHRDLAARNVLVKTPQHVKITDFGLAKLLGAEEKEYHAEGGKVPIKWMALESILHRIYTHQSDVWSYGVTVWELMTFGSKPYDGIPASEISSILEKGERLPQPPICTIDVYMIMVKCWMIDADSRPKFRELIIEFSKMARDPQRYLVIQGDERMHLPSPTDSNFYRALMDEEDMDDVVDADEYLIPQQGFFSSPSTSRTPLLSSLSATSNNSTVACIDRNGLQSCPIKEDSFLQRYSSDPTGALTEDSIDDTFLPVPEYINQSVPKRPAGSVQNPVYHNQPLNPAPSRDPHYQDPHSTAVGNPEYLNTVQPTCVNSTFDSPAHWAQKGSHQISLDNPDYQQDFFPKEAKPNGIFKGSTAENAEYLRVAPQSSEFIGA

As a reminder, the IC50 is the concentration needed to halve the response being measured. The low end stands for greater potency, the high end for weaker potency. As for `C=CS(=O)(=O)N(C)CCOc1cnccc1-c1[nH]c2cccnc2c1-c1cc(CC)ccc1F` [Example 67, N-[2-({4-[3-(5-ethyl-2-fluorophenyl)-1H-pyrrolo[3,2-b]pyridin-2-yl]pyridin-3-yl}oxy)ethyl]-N-methylethenesulfonamide], the results for the IC50 (in assay [1]; in assay [2]; in the assay with BA/F3 (insSVD) cells) were 3.01 nM, 14.6 nM and 418 nM, respectively.
In the case of `C=CS(=O)(=O)N(C)CCOc1cnccc1-c1[nH]c2cccnc2c1-c1cc(F)cc(F)c1` [Example 68, N-[2-({4-[3-(3,5-difluorophenyl)-1H-pyrrolo[3,2-b]pyridin-2-yl]pyridin-3-yl}oxy)ethyl]-N-methylethenesulfonamide], the IC50 is 3.64 nM in assay [1], 8.76 nM in assay [2] and 296 nM with BA/F3 (insSVD) cells.
The corresponding values for `C=CS(=O)(=O)N(C)CCOc1cnccc1-c1[nH]c2cccnc2c1-c1cccc(OC)c1` [Example 69, N-[2-({4-[3-(3-methoxyphenyl)-1H-pyrrolo[3,2-b]pyridin-2-yl]pyridin-3-yl}oxy)ethyl]-N-methylethenesulfonamide] are 3.65 nM, 8.7 nM and 287 nM.
The corresponding values for `C=CS(=O)(=O)N(C)CCOc1cnccc1-c1[nH]c2cccnc2c1-c1cccc(C(C)C)c1` [Example 70, N-methyl-N-{2-[(4-{3-[3-(propan-2-yl)phenyl]-1H-pyrrolo[3,2-b]pyridin-2-yl}pyridin-3-yl)oxy]ethyl}ethenesulfonamide] are 5.33 nM, 46.6 nM and 749 nM.
The corresponding values for `C=CS(=O)(=O)N(C)CCOc1cnccc1-c1[nH]c2cccnc2c1-c1cc(Cl)ccc1Cl` [Example 71, N-[2-({4-[3-(2,5-dichlorophenyl)-1H-pyrrolo[3,2-b]pyridin-2-yl]pyridin-3-yl}oxy)ethyl]-N-methylethenesulfonamide] are 5.37 nM, 8.59 nM and 404 nM.
For `C=CS(=O)(=O)N(C)CCOc1cnccc1-c1[nH]c2cccnc2c1-c1ccccc1CC` [Example 72, N-[2-({4-[3-(2-ethylphenyl)-1H-pyrrolo[3,2-b]pyridin-2-yl]pyridin-3-yl}oxy)ethyl]-N-methylethenesulfonamide], the IC50 in assay [1] was found to be 5.82 nM; in assay [2], 78.8 nM; with BA/F3 (insSVD) cells, 463 nM.
Taken in the same sequence, the figures for `C=CS(=O)(=O)N(C)CCOc1cnccc1-c1[nH]c2cccnc2c1-c1cc(OC)ccc1F` [Example 73, N-[2-({4-[3-(2-fluoro-5-methoxyphenyl)-1H-pyrrolo[3,2-b]pyridin-2-yl]pyridin-3-yl}oxy)ethyl]-N-methylethenesulfonamide] were 8.7 nM, 27.9 nM and 555 nM.
Taken in the same sequence, the figures for `C=CS(=O)(=O)N(C)CCOc1cnccc1-c1[nH]c2cccnc2c1-c1cccc(OC(F)(F)F)c1` [Example 74, N-methyl-N-{2-[(4-{3-[3-(trifluoromethoxy)phenyl]-1H-pyrrolo[3,2-b]pyridin-2-yl}pyridin-3-yl)oxy]ethyl}ethenesulfonamide] were 11.2 nM, 58.8 nM and 964 nM.
Taken in the same sequence, the figures for `C=CS(=O)(=O)N(C)CCOc1cnccc1-c1[nH]c2cccnc2c1-c1cc(Cl)cc(Cl)c1` [Example 75, N-[2-({4-[3-(3,5-dichlorophenyl)-1H-pyrrolo[3,2-b]pyridin-2-yl]pyridin-3-yl}oxy)ethyl]-N-methylethenesulfonamide] were 45 nM, 26.1 nM and 2020 nM.
For the compound `C=CC(=O)N1CCC[C@H]1COc1cnccc1-c1[nH]c2cccnc2c1-c1cc(C(F)(F)F)ccc1F` [Example 76, 1-[(2S)-2-{[(4-{3-[2-fluoro-5-(trifluoromethyl)phenyl]-1H-pyrrolo[3,2-b]pyridin-2-yl}pyridin-3-yl)oxy]methyl}pyrrolidin-1-yl]prop-2-en-1-one], the values for the 50% inhibitory concentration (IC50) (in assay [1]; in assay [2]; in the assay on BA/F3 (insSVD) cells) were 2.78 nM, 9.46 nM and 97.9 nM, respectively.
The corresponding values for `C=CC(=O)N1CCC[C@H]1COc1cnccc1-c1[nH]c2cccnc2c1-c1cc(C)ccc1F` [Example 77, 1-{(2S)-2-[({4-[3-(2-fluoro-5-methylphenyl)-1H-pyrrolo[3,2-b]pyridin-2-yl]pyridin-3-yl}oxy)methyl]pyrrolidin-1-yl}prop-2-en-1-one] are 0.853 nM, 1.97 nM and 27.4 nM.
On to `C=CC(=O)N1CCC[C@H]1COc1cnccc1-c1[nH]c2cccnc2c1-c1cccc(CC)c1` [Example 78, 1-{(2S)-2-[({4-[3-(3-ethylphenyl)-1H-pyrrolo[3,2-b]pyridin-2-yl]pyridin-3-yl}oxy)methyl]pyrrolidin-1-yl}prop-2-en-1-one], for which the IC50 was determined as 1.04 nM in assay [1], 2.92 nM in assay [2] and 80.2 nM in the assay with BA/F3 (insSVD) cells.
The corresponding values for `C=CC(=O)N1CCC[C@H]1COc1cnccc1-c1[nH]c2cccnc2c1-c1ccc2cccnc2c1` [Example 79, 1-{(2S)-2-[({4-[3-(quinolin-7-yl)-1H-pyrrolo[3,2-b]pyridin-2-yl]pyridin-3-yl}oxy)methyl]pyrrolidin-1-yl}prop-2-en-1-one] are 4.41 nM, 9.38 nM and 367 nM.
The corresponding values for `C=CC(=O)N1CCC[C@H]1COc1cnccc1-c1[nH]c2cccnc2c1-c1ccc2ccccc2c1` [Example 80, 1-{(2S)-2-[({4-[3-(naphthalen-2-yl)-1H-pyrrolo[3,2-b]pyridin-2-yl]pyridin-3-yl}oxy)methyl]pyrrolidin-1-yl}prop-2-en-1-one] are 0.583 nM, 1.86 nM and 162 nM.
The corresponding values for `C=CC(=O)N1CCC[C@H]1COc1cnccc1-c1[nH]c2cccnc2c1-c1ccc2ccsc2c1` [Example 81, 1-{(2S)-2-[({4-[3-(1-benzothiophen-6-yl)-1H-pyrrolo[3,2-b]pyridin-2-yl]pyridin-3-yl}oxy)methyl]pyrrolidin-1-yl}prop-2-en-1-one] are 0.391 nM, 1.29 nM and 57.4 nM.
Regarding `C=CC(=O)N1CCC[C@H]1COc1cnccc1-c1[nH]c2cccnc2c1-c1ccc2ccoc2c1` [Example 82, 1-{(2S)-2-[({4-[3-(1-benzofuran-6-yl)-1H-pyrrolo[3,2-b]pyridin-2-yl]pyridin-3-yl}oxy)methyl]pyrrolidin-1-yl}prop-2-en-1-one], the half-inhibitory concentration (IC50) in assay [1] was 0.267 nM; in assay [2], 0.837 nM; in the assay on BA/F3 (insSVD) cells, 36.8 nM.
For the compound `C=CC(=O)N1CCC[C@H]1COc1cnccc1-c1[nH]c2cccnc2c1-c1cccc(OC)c1` [Example 83, 1-{(2S)-2-[({4-[3-(3-methoxyphenyl)-1H-pyrrolo[3,2-b]pyridin-2-yl]pyridin-3-yl}oxy)methyl]pyrrolidin-1-yl}prop-2-en-1-one], the 50% inhibitory concentration (IC50) in assay [1] turned out to be 2.09 nM; in assay [2], 7.63 nM; in the assay on BA/F3 (insSVD) cells, 132 nM.
Taken in the same sequence, the figures for `C=CC(=O)N1CCC[C@H]1COc1cnccc1-c1[nH]c2cccnc2c1-c1ccc2cc[nH]c2c1` [Example 84, 1-{(2S)-2-[({4-[3-(1H-indol-6-yl)-1H-pyrrolo[3,2-b]pyridin-2-yl]pyridin-3-yl}oxy)methyl]pyrrolidin-1-yl}prop-2-en-1-one] were 32.5 nM, 154 nM and 3560 nM.
The corresponding values for `C=CC(=O)N1CCC[C@H]1COc1cnccc1-c1[nH]c2cccnc2c1-c1cccc(Cl)c1Cl` [Example 85, 1-{(2S)-2-[({4-[3-(2,3-dichlorophenyl)-1H-pyrrolo[3,2-b]pyridin-2-yl]pyridin-3-yl}oxy)methyl]pyrrolidin-1-yl}prop-2-en-1-one] are 0.5 nM, 3.64 nM and 55.7 nM.
On to `C=CC(=O)N1CCC[C@H]1COc1cnccc1-c1[nH]c2cccnc2c1-c1cccc(F)c1F` [Example 86, 1-{(2S)-2-[({4-[3-(2,3-difluorophenyl)-1H-pyrrolo[3,2-b]pyridin-2-yl]pyridin-3-yl}oxy)methyl]pyrrolidin-1-yl}prop-2-en-1-one], for which the IC50 in assay [1] worked out at 0.911 nM; in assay [2] it was 3.99 nM; in the assay with BA/F3 (insSVD) cells, 67 nM.
Taken in the same sequence, the figures for `C=CC(=O)N1CCC[C@H]1COc1cnccc1-c1[nH]c2cccnc2c1-c1cccc(C#N)c1` [Example 87, 3-[2-(3-{[(2S)-1-(prop-2-enoyl)pyrrolidin-2-yl]methoxy}pyridin-4-yl)-1H-pyrrolo[3,2-b]pyridin-3-yl]benzonitrile] were 15.2 nM, 33.8 nM and 759 nM.
Taken in the same sequence, the figures for `C=CC(=O)N1CCC[C@H]1COc1cnccc1-c1[nH]c2cccnc2c1-c1ccccc1Cl` [Example 88, 1-{(2S)-2-[({4-[3-(2-chlorophenyl)-1H-pyrrolo[3,2-b]pyridin-2-yl]pyridin-3-yl}oxy)methyl]pyrrolidin-1-yl}prop-2-en-1-one] were 1.89 nM, 10.7 nM and 166 nM.
With `C=CC(=O)N1CCC[C@H]1COc1cnccc1-c1[nH]c2cccnc2c1-c1ccccc1F` [Example 89, 1-{(2S)-2-[({4-[3-(2-fluorophenyl)-1H-pyrrolo[3,2-b]pyridin-2-yl]pyridin-3-yl}oxy)methyl]pyrrolidin-1-yl}prop-2-en-1-one], the IC50 in assay [1] was 0.547 nM; in assay [2], 2.31 nM; in the assay with BA/F3 (insSVD) cells it was 24.2 nM.
